From patent publication US5455278A (priority 1994, dated 1995)

Key:
[1] = tested on: Salmonella typhimurium; assay: Inhibitory effect of falcarindiol on S. typhimurium (optical density at 600nm, aerobic); format: cell-based; settings: aerobic conditions, 20° C.
[2] = Effectiveness of falcarindiol as inhibitor versus pH and aerobic conditions; format: cell-based
[3] = tested on: Clostridium botulinum; format: cell-based; settings: anaerobic conditions, 20° C.
[4] = Solubility of falcarindiol; format: physicochemical
[5] = tested on: Staphylococcus aureus; assay: Inhibitory effect of falcarindiol on S. aureus (optical density at 600nm, aerobic); format: cell-based; settings: aerobic conditions, 20° C.
[6] = mice; cited from earlier work
[7] = tested on: Escherichia coli; assay: Inhibitory effect of falcarindiol on E. coli (optical density at 600nm, aerobic); format: cell-based; settings: aerobic conditions, 20° C.
[8] = Inactivation of falcarindiol by heating; format: physicochemical
[9] = tested on: L. monocytogenes; assay: Effect of oxygen on the inhibitory activity of falcarindiol; settings: pH 7.5, 20° C.
[10] = tested on: mechanosensitive channels; settings: giant spheroplasts of E. coli, patch clamp

## C=CC(O)C#CC#CC(O)C=CCCCCCCC (stereo not shown) [falcarindiol]
[1]
  inhibition of S. typhimurium: inactive
[2]; aerobic conditions
  activity under aerobic conditions: active under aerobic conditions
[2]; pH
  pH (acidity) values at which it is effective: above 5
[3]
  inhibition of C. botulinum: inhibited
[4]
  solubility in ethyl acetate: readily soluble
[5]
  inhibition of S. aureus: inhibited
[6]
  LD50: about 100 mg/kg of body weight
[7]
  inhibition of E. coli: inactive
[8]
  stability to heating (activity): can be inactivated by heating
[9]; aerobic
  inactivation of L. monocytogenes under aerobic conditions: completely inactivated
[9]; anaerobic
  lag phase of L. monocytogenes under anaerobic conditions: 15 h
[9]
  inhibition under aerobic versus anaerobic conditions: much greater under aerobic conditions
[10]
  activation of mechanosensitive channels: mechanosensitive channels were activated
